Converted amounts (≈) assume the structure as drawn. Read-outs that look alike come from different tables or passages of the source.
Test system: Pseudomonus aeruginosa NCTC-10490
Assay: In vitro activity, two-fold agar-plate dilution method, minimal inhibitory concentration (MIC)
Assay type: cell-based
Settings: read-out: MIC (minimal inhibitory concentration)
[1] = heart infusion agar (HI-agar), overnight culture in Trypticase-soy broth (10^8 viable cells per ml.), incubation at 37° C. for 20 hours

SMILES	MIC (20 h) [mg/L]	MIC [1] [mg/L]
Cn1nnnc1SCC1=C(C(=O)O)N2C(=O)[C@@H](NC(=O)[C@H](NC(=O)c3cc(Cl)ccc3O)c3ccccc3)[C@H]2SC1 [Example 1, 7-[D-N-(2-hydroxy-5-chlorobenzoyl)-2-phenylglycinamido]-3-(1-methyl-1H-tetrazol-5-ylthiomehyl)-3-cephem-4-carboxylic acid]	1.56 (≈ 2.53 µM)	–
Cn1nnnc1SCC1=C(C(=O)O)N2C(=O)C(NC(=O)[C@H](NC(=O)c3cc(Cl)cc(Cl)c3O)c3ccccc3)C2SC1 (stereo partly drawn) [Example 2, 7-[D-N-(2-hydroxy-3,5-dichlorobenzoyl)-2-phenylglycinamido]-3-(1-methyl-1H-tetrazol-5-ylthiomethyl)-3-cephem-4-carboxylic acid]	–	0.78 (≈ 1.2 µM)
Cn1nnnc1SCC1=C(C(=O)O)N2C(=O)C(NC(=O)[C@H](NC(=O)c3cc([N+](=O)[O-])ccc3O)c3ccccc3)C2SC1 (stereo partly drawn) [Example 3, 7-[D-N-(2-hydroxy-5-nitrobenzoyl)-2-phenylglycinamido]-3-(1-methyl-1H-tetrazol-5-ylthiomethyl)-3-cephem-4-carboxylic acid]	–	0.78 (≈ 1.24 µM)
Cn1nnnc1SCC1=C(C(=O)O)N2C(=O)C(NC(=O)[C@H](NC(=O)c3cc(S(N)(=O)=O)ccc3O)c3ccccc3)C2SC1 (stereo partly drawn) [Example 4, 7-[D-N-(2-hydroxy-5-sulfamoylbenzoyl)-2-phenylglycinamido]-3-(1-methyl-1H-tetrazol-5-ylthiomethyl)-3-cephem-4-carboxylic acid]	–	0.78 (≈ 1.18 µM)
CC(=O)c1ccc(O)c(C(=O)N[C@@H](C(=O)NC2C(=O)N3C(C(=O)O)=C(CSc4nnnn4C)CSC23)c2ccccc2)c1 (stereo partly drawn) [Example 5, 7-[D-N-(2-hydroxy-5-acetylbenzoyl)-2-phenylglycinamido]-3-(1-methyl-1H-tetrazol-5-ylthiomethyl)-3-cephem-4-carboxylic acid]	–	0.78 (≈ 1.25 µM)
Cn1nnnc1SCC1=C(C(=O)O)N2C(=O)C(NC(=O)[C@H](NC(=O)c3cc(C#N)c(Cl)cc3O)c3ccccc3)C2SC1 (stereo partly drawn) [Example 6, 7-[D-N-(2-hydroxy-4-chloro-5-cyanobenzoyl)-2-phenylglycinamido]-3-(1-methyl-1H-tetrazol-5-ylthiomethyl)-3-cephem-4-carboxylic acid]	1.56 (≈ 2.43 µM)	–
Cn1nnnc1SCC1=C(C(=O)O)N2C(=O)C(NC(=O)[C@H](NC(=O)c3cc(C(N)=O)c(Cl)cc3O)c3ccccc3)C2SC1 (stereo partly drawn) [Example 7, 7-[D-N-(2-hydroxy-4-chloro-5-carbamoylbenzoyl)-2-phenylglycinamido]-3-(1-methyl-1H-tetrazol-5-ylthiomethyl)-3-cephem-4-carboxylic acid]	–	0.78 (≈ 1.18 µM)
Cn1nnnc1SCC1=C(C(=O)O)N2C(=O)C(NC(=O)[C@H](NC(=O)c3cc(S(N)(=O)=O)c(Cl)cc3O)c3ccccc3)C2SC1 (stereo partly drawn) [Example 8, 7-[D-N-(2-hydroxy-4-chloro-5-sulfamoylbenzoyl)-2-phenylglycinamido]-3-(1-methyl-1H-tetrazol-5-ylthiomethyl)-3-cephem-4-carboxylic acid]	–	0.78 (≈ 1.12 µM)
Cn1nnnc1SCC1=C(C(=O)O)N2C(=O)C(NC(=O)[C@H](NC(=O)c3cc([N+](=O)[O-])cc([N+](=O)[O-])c3O)c3ccccc3)C2SC1 (stereo partly drawn) [Example 9, 7-[D-N-(2-hydroxy-3,5-dinitrobenzoyl)-2-phenylglycinamido]-3-(1-methyl-1H-tetrazol-5-ylthiomethyl)-3-cephem-4-carboxylic acid]	1.56 (≈ 2.32 µM)	–
Cn1nnnc1SCC1=C(C(=O)O)N2C(=O)C(NC(=O)[C@H](NC(=O)c3ccc(O)cc3O)c3ccccc3)C2SC1 (stereo partly drawn) [Example 25, 7-[D-N-(2,4-dihydroxybenzoyl)-2-phenylglycinamido]-3-(1-methyl-1H-tetrazol-5-ylthiomethyl)-3-cephem-4-carboxylic acid]	1.56 (≈ 2.61 µM)	–
CN1CCN(S(=O)(=O)c2ccc(O)c(C(=O)N[C@@H](C(=O)NC3C(=O)N4C(C(=O)O)=C(CSc5nnnn5C)CSC34)c3ccccc3)c2)CC1 (stereo partly drawn) [Example 52, 7-[D-N-{2-hydroxy-5-(4-methyl-1-piperazinylsulfonyl)benzoyl}-2-phenylglycinamido]-3-(1-methyl-1H-tetrazol-5-ylthiomethyl)-3-cephem-4-carboxylic acid]	1.56 (≈ 2.1 µM)	–
CCOC(=O)CS(=O)(=O)NCc1nnc(SCC2=C(C(=O)O)N3C(=O)C(NC(=O)[C@H](NC(=O)c4cc(Cl)cc(Cl)c4O)c4ccccc4)C3SC2)s1 (stereo partly drawn) [Example 53, 7-[D-N-(2-hydroxy-3,5-dichlorobenzoyl)-2-phenylglycinamido]-3-(5-ethoxycarbonylmesylaminomethyl-1,3,4-thiadiazol-2-ylthiomethyl)-3-cephem-4-carboxylic acid]	1.56 (≈ 1.88 µM)	–
Cc1nnc(SCC2=C(C(=O)O)N3C(=O)C(NC(=O)[C@H](NC(=O)[C@H](O)c4ccccc4)c4ccccc4)C3SC2)s1 (stereo partly drawn) [Example 56, 7-[D-N-(D-mandeloyl)-2-phenylglycinamido]-3-(5-methyl-1,3,4-thiadiazol-2-ylthiomethyl)-3-cephem-4-carboxylic acid]	–	12.5 (≈ 20.4 µM)
Cn1nnnc1SCC1=C(C(=O)O)N2C(=O)C(NC(=O)[C@H](NC(=O)COc3cc(Cl)cc(Cl)c3O)c3ccccc3)C2SC1 (stereo partly drawn) [Example 63, 7-[D-N-{2-(2-hydroxy-3,5-dichlorophenoxy)acetyl}-2-phenylglycinamido]-3-(1-methyl-1H-tetrazol-5-ylthiomethyl)-3-cephem-4-carboxylic acid]	–	6.25 (≈ 9.18 µM)
CC(=O)OCC1=C(C(=O)O)N2C(=O)[C@@H](NC(=O)[C@H](NC(=O)COc3ccc(Cl)cc3C(=O)c3ccccc3)c3ccccc3)[C@H]2SC1 [Example 67, 7-[D-N-{2-(2-benzoyl-4-chlorophenoxy)acetyl}-2-phenylglycinamido]cephalosporanic acid]	1.56 (≈ 2.3 µM)	–
CC(=O)OCC1=C(C(=O)O)N2C(=O)[C@@H](NC(=O)[C@H](NC(=O)COc3ccc(Cl)cc3C(=O)c3ccc(NC(=O)CSCC(=O)O)cc3)c3ccccc3)[C@H]2SC1 [Example 69, 7-[D-N-[2-{2-(4-carboxymethylthioacetamidobenzoyl)-4-chlorophenoxy}acetyl]-2-phenylglycinamido]cephalosporanic acid]	–	6.25 (≈ 7.57 µM)
